Entries after “also recorded” stand apart in the source; their conditions may differ.
Tests used:
histone H2A.X = assay: Immunofluorescent detection of phosphorylated histone H2A.X; format: cell-based, human; conditions: HT1080 cells, 10 μM
Text: (§1) All washings were done with blocking solution.

IκBα = IκBα level (Western analysis); format: cell-based, human; conditions: TNF 10 ng/ml, 9AA 10 μM
Method: Cells were lysed in RIPA buffer (25 mM Tris HCl, pH 7.2, 125 mM NaCl, 1% NP40, 1% sodium deoxycholate, 1 mM EDTA) containing 1 mM PMSF (Sigma), 10 ug/ml of aprotinin (Sigma) and 10 ug/ml of leupeptin (Sigma). Protein concentrations were determined with the BioRad Dc protein assay kit. Equal protein amounts were run on gradient 4-20% precast gels (Novex) and blotted onto PVDF membranes (Amersham). The following antibodies were used: anti-p53—monoclonal mouse DO1 (Santa-Cruz), anti-p21—monoclonal mouse F-5 (Santa-Cruz), anti-mdm2—monoclonal mouse SMP14 (Santa-Cruz), anti-p65—(C20, Santa Cruz), anti-phospho-p65—(ser536, Cell Signaling), anti-IκBa—(C21, Santa Cruz), anti-p50—(NLS, Santa Cruz), anti-IKK1 (Cell Signaling), anti-γH2X (Cell Signaling), anti-actin (Santa Cruz). p53 phosphorylation status was analyzed using the phospho-p53 sampler kit from Cell Signaling according to the manufacturer's recommendations. HRP-conjugated secondary antibodies were purchased from Santa Cruz. Quantitation of the data was performed using Quantity One software from BioRad.

[1] = test system: androgen receptor, N-Myc, CLOCK/Bmal and Smad; assay: Reporter activity of other transcriptional activators; format: cell-based; conditions: data not shown
NF-κB = assay: Electromobility shift assay and immunofluorescent staining of nuclear NF-κB; format: cell-based, human; conditions: TNF 10 ng/ml, 10 μM
Text: as §1

p53 = p53 reporter in organ cultures of human RCC tumor samples; format: cell-based; conditions: 12 hours
Method: FIG. 11. QC can activate p53 transactivation in organ cultures of human RCC tumor samples. Fresh surgically removed samples of tumor and adjacent normal kidney were cut into small pieces and put into media containing ConALacZ virus (5×10^7 TU/ml) with […] of polybrene for 4 hours. 24 hours after infection, tissue pieces (at least three per treatment) were incubated with media containing quinacrine or doxorubicin for 12 hours. Then the tissues were fixed for 30 min in PBS containing 0.5% glutaraldehyde and 1 mM MgCl2. Pieces of tumor were stained in PBS solution containing X-gal (1 mM MgCl2, 3.3 mM K4Fe(CN)6, 3.3 mM K3Fe(CN)6, 0.02% NP40, 0.2% X-gal) overnight at 37° C. Stained specimens were analyzed microscopically by squeezing pieces of tumor and normal tissues between two glass slides.

[2] = test system: proinflammatory cytokines in the skin; assay: IL-1β, TNFα, CCL21 and IκBα expression in sensitized skin (RT-PCR, ELISA); format: in vivo, BALB/c mice; conditions: quinacrine on days −2 plus −1, 0.25% DNFB
Method: Naive and sensitized mouse skin (˜200 mg) was snap frozen in liquid nitrogen and then ground using a mortar and pestle in liquid nitrogen. Total RNA was extracted using the RNeasy Tissue Kit (Qiagen, Inc., Valencia, Calif.) according to the manufacturer's protocol. For synthesis of cDNA, 2 mg of total RNA from each sample was resuspended in 10 ml of the reaction buffer. cDNA synthesis was performed using M-MLV reverse transcriptase (Promega Corporation, Madison, Wis.) with random primers according to the manufacturer's protocol. The reaction was stopped by denaturing the enzyme at 99° C. for 5 min. and the mixture was diluted with distilled water to a final volume of 50 ml. Aliquots (3 ml) of the synthesized cDNA were added to 47 ml of PCR mixture, containing 1×PCR buffer, MgCl2 (1.5 mM), dNTP (0.2 mM each), primer mix (0.5 mM each) and 2.0 units of Taq DNA polymerase (all from Invitrogen Corp., Carlsbad, Calif.). PCR primers for mouse GAPDH, IκBα, TNF-α, IL-1β and CCL21 were purchased from Integrated DNA Technologies, Inc. (Coralville, Iowa) and contained the following sequences:
Amplification was initiated by 1 min of denaturation at 95° C. for 1 cycle. […] For each set of primers, dilutions of cDNA were amplified for 20-40 cycles to define optimal conditions for linearity and to permit semi-quantitative analysis of signal strength. […]

CCN(CC)CCCC(C)Nc1c2ccc(Cl)cc2nc2ccc(OC)cc12 (stereo not shown) [QC, quinacrine]
phosphorylation of histone H2A.X (histone H2A.X): Neither 9AA nor QC induced phosphorylation of histone H2A.X
TNF-stimulated induction of IκBα (IκBα): blocked
activity of other transcriptional activators (androgen receptor, N-Myc, CLOCK/Bmal and Smad) [1]: did not change the activity
nuclear accumulation and retention of NF-κB (p65) complexes (NF-κB): greatly prolonged the time of its presence in nuclei
p53-responsive reporter induction in normal kidney samples (p53; organ cultures of adjacent normal kidney): no reporter induction
expression of a p53-responsive reporter in tumor samples (p53; organ cultures of human RCC): can be also detected in short-term organ cultures; also recorded: induced expression of a p53-responsive reporter in tumor samples
antigen-induced mRNA expression and protein production of proinflammatory cytokines in the skin [2]: decreases antigen-induced mRNA expression and protein production of proinflammatory cytokines in the skin

— patent US20100112012A1, “MODULATION OF IMMUNE RESPONSES” (CLEVELAND CLINIC FOUNDATION, priority 2005, published 2010)
